Here are results for 6 compounds from ChEMBL document CHEMBL1151943, “The glutamate receptor GluR5 agonist (S)-2-amino-3-(3-hydroxy-7,8-dihydro-6H-cyclohepta[d]isoxazol-4-yl)propionic acid and the 8-methyl analogue: synthesis, molecular pharmacology, and biostructural characterization” (J Med Chem, 2009).

Molecules are shown by their SMILES.

The target of assay [1] is Glutamate receptor 3 (Rattus norvegicus) (UniProt P19492). As to the kind of experiment: Agonist activity at rat recombinant GluR3 flip isomer expressed in HEK293 cells assessed as increase in intracellular calcium level by Fluo-4/AM assay relative to glutamic acid. Format: functional, cell-based. On the technique in general: A change in cytosolic calcium serves as a functional read-out for many receptors and channels.

Assay [2] deals with Glutamate receptor 1 (Rattus norvegicus) (UniProt P19490). As to the kind of experiment: Agonist activity at rat recombinant GluR1 flip isoform expressed in HEK293 cells assessed as increase in intracellular calcium level by Fluo-4/AM assay relative to glutamic acid. Format: functional, cell-based.
Assay [3] is described as follows: Displacement of [3H]AMPA from AMPA receptor in rat cortical synaptosomes. Format: subcellular, Brain. (Loss of bound radioactivity is the signal in a displacement assay; it reports binding, not function.)
Assay [4] has as its target T1, Glutamate receptor 4 (Rattus norvegicus, UniProt P19493). Briefly: Agonist activity at rat recombinant GluR4 flip isomer expressed in HEK293 cells assessed as increase in intracellular calcium level by Fluo-4/AM assay. Format: functional, cell-based.
Assay [5] addresses Glutamate receptor 4 (Rattus norvegicus) (UniProt P19493). As to the kind of experiment: Agonist activity at rat recombinant GluR4 flip isomer expressed in HEK293 cells assessed as increase in intracellular calcium level by Fluo-4/AM assay relative to glutamic acid. Format: functional, cell-based.
The nature of assay [6]: Displacement of [3H]KA from KA receptor in rat cortical synaptosomes. Format: subcellular, Brain.
Assay [7] concerns the target T2, Glutamate receptor ionotropic, kainate 1 (Rattus norvegicus, UniProt P22756).
Description: Agonist activity at rat recombinant GluR5(Q) RNA-edited isoform expressed in HEK293 cells assessed as increase in intracellular calcium level by Fluo-4/AM assay
The target in assay [8] is T1, Glutamate receptor 4. As to the kind of experiment: Displacement of [3H]AMPA from rat recombinant GluR4 flop isoform expressed in baculovirus infected Sf9 cells.
In assay [9] the target is T3, Glutamate receptor 1 (Rattus norvegicus, UniProt P19490). As to the kind of experiment: Displacement of [3H]AMPA from rat recombinant GluR1 flop isoform expressed in baculovirus infected Sf9 cells.
Assay [10] concerns the target T4, Glutamate receptor 3 (Rattus norvegicus, UniProt P19492). As to the kind of experiment: Agonist activity at rat recombinant GluR3 flip isomer expressed in HEK293 cells assessed as increase in intracellular calcium level by Fluo-4/AM assay. Format: functional, cell-based.
The target of assay [11] is T5, Glutamate receptor 2 (Rattus norvegicus, UniProt P19491). As to the kind of experiment: Displacement of [3H]AMPA from rat recombinant GluR2(R) RNA-edited flop isoform expressed in baculovirus infected Sf9 cells.
Assay [12] concerns the target T3, Glutamate receptor 1. As to the kind of experiment: Agonist activity at rat recombinant GluR1 flip isoform expressed in HEK293 cells assessed as increase in intracellular calcium level by Fluo-4/AM assay. Format: functional, cell-based.
In assay [13] the target is T6, Glutamate receptor ionotropic, kainate 2 (Rattus norvegicus, UniProt P42260). Briefly: Agonist activity at rat recombinant GluR6(Q) RNA-edited isoform expressed in HEK293 cells assessed as increase in intracellular calcium level by Fluo-4/AM assay. Format: functional, cell-based.
The target of assay [14] is Glutamate NMDA receptor. Briefly: Displacement of [3H]CGP from NMDA receptor in rat cortical synaptosomes. Format: subcellular, Brain.
Assay [15] addresses Glutamate NMDA receptor; Grin1/Grin2a (Rattus norvegicus, UniProt P35439+Q00959). As to the kind of experiment: Agonist activity at ConA-treated rat NR1/NR2A expressed in Xenopus laevis oocytes assessed as glycine-induced maximal current by two-electrode voltage clamp method. Format: functional, cell-based, Oocyte. For orientation: In two-electrode clamp one electrode senses voltage and the other passes current.

Assay [16] has as its target T4, Glutamate receptor 3. As to the kind of experiment: Displacement of [3H]AMPA from rat recombinant GluR3 flop isoform expressed in baculovirus infected Sf9 cells.
The target in assay [17] is T5, Glutamate receptor 2.
Description: Agonist activity at rat recombinant GluR2(Q) RNA-edited isoform expressed in HEK293 cells assessed as increase in intracellular calcium level by Fluo-4/AM assay
Assay [18] deals with T2, Glutamate receptor ionotropic, kainate 1. As to the kind of experiment: Displacement of [3H]SYM from rat recombinant GluR5(Q) RNA-edited isoform expressed in baculovirus infected Sf9 cells.
Assay [19] has the same target. Briefly: Agonist activity at ConA-treated rat GluR5(Q) RNA-edited isoform expressed in Xenopus laevis oocytes assessed as glutamic acid-induced maximal current by two-electrode voltage clamp method. Format: functional, cell-based, Oocyte.
Assay [20] concerns the target T6, Glutamate receptor ionotropic, kainate 2. As to the kind of experiment: Displacement of [3H]KA from rat recombinant GluR6(VCR) RNA-edited isoform expressed in baculovirus infected Sf9 cells.
Assay [21] addresses Glutamate receptor ionotropic, kainate 3 (Rattus norvegicus, UniProt P42264). As to the kind of experiment: Displacement of [3H]SYM from rat recombinant GluR7A expressed in baculovirus infected Sf9 cells.
For assay [22], the target named is T3, Glutamate receptor 1. Briefly: Agonist activity at ConA-treated rat GluR1 flip isoform expressed in Xenopus laevis oocytes assessed as glutamic acid-induced maximal current by two-electrode voltage clamp method. Format: functional, cell-based, Oocyte.
Assay [23] deals with Glutamate NMDA receptor. As to the kind of experiment: Displacement of […] from NMDA receptor in rat cortical synaptosomes. Format: subcellular, Brain.

T3 sequence (P19490 whole entry, canonical isoform): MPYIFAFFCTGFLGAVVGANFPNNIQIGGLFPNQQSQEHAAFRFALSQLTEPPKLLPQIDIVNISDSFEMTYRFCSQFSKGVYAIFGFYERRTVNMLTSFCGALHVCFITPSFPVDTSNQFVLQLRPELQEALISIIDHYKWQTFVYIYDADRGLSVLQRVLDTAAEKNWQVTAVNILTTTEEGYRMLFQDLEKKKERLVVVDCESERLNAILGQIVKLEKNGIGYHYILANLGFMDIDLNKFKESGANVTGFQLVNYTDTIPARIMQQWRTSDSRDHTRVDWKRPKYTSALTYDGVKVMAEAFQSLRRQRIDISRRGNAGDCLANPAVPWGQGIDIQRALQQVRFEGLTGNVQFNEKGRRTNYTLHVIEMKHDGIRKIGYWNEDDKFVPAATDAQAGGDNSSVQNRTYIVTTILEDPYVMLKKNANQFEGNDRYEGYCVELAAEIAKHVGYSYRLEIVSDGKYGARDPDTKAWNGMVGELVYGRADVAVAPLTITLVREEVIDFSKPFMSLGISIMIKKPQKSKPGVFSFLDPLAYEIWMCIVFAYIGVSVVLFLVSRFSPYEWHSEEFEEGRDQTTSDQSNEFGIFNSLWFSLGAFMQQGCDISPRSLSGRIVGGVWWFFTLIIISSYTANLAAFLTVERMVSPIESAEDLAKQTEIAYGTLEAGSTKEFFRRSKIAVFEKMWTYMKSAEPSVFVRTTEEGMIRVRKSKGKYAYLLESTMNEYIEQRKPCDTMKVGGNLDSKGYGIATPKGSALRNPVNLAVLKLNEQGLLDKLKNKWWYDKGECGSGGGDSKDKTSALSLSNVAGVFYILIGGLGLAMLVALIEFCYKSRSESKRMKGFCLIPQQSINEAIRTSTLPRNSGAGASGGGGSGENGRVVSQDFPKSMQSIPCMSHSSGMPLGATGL
Sequence of Glutamate receptor 1 (Rattus norvegicus) (P19490 whole entry, canonical isoform): as above
T1 sequence (P19493 whole entry): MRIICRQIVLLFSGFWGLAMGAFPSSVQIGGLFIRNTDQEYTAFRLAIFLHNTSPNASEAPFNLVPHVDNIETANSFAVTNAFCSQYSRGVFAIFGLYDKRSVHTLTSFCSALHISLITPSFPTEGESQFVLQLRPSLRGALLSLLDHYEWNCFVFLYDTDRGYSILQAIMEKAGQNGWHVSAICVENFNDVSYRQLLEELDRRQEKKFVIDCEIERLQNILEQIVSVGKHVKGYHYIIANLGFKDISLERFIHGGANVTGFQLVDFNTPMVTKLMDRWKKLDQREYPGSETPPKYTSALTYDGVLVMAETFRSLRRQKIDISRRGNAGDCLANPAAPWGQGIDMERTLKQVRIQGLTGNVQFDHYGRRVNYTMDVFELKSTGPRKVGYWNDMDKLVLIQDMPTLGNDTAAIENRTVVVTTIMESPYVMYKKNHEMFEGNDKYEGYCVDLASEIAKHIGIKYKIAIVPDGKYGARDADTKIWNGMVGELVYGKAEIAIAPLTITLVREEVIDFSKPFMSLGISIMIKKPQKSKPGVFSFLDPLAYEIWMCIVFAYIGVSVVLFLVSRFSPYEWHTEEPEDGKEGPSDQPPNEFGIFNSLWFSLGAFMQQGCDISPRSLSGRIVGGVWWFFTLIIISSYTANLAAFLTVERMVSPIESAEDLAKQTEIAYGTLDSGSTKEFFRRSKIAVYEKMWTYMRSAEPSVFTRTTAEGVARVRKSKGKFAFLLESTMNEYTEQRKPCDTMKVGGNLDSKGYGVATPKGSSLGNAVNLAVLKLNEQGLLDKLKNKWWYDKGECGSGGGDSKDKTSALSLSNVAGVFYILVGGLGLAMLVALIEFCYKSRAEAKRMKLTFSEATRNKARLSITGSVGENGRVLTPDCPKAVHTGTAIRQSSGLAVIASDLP
Sequence of Glutamate receptor 4 (Rattus norvegicus) (P19493 whole entry): as above
T5 sequence (P19491 whole entry, canonical isoform): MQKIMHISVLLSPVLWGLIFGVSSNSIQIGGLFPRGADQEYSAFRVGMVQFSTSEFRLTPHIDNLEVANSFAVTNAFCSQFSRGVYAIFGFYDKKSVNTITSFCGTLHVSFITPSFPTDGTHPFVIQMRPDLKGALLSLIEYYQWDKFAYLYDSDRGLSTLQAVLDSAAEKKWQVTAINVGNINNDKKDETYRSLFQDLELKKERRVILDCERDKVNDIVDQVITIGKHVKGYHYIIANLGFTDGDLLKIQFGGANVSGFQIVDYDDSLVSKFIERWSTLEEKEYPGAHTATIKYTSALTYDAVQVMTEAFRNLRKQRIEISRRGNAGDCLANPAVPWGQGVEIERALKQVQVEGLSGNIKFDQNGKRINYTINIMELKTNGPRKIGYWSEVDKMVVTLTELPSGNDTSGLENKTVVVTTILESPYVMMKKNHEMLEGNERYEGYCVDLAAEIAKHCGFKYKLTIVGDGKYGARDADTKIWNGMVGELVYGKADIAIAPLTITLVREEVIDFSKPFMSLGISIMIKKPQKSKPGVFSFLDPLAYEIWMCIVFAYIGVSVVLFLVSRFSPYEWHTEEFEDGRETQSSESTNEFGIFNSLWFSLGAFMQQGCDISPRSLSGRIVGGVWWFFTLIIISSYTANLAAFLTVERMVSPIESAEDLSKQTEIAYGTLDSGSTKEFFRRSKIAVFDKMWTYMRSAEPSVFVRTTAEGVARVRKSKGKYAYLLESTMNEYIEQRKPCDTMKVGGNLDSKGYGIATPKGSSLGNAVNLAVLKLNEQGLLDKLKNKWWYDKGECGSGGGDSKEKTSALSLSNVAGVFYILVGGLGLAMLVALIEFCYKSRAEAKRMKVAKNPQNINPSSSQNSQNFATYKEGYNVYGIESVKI
T2 sequence (P22756 whole entry, canonical isoform): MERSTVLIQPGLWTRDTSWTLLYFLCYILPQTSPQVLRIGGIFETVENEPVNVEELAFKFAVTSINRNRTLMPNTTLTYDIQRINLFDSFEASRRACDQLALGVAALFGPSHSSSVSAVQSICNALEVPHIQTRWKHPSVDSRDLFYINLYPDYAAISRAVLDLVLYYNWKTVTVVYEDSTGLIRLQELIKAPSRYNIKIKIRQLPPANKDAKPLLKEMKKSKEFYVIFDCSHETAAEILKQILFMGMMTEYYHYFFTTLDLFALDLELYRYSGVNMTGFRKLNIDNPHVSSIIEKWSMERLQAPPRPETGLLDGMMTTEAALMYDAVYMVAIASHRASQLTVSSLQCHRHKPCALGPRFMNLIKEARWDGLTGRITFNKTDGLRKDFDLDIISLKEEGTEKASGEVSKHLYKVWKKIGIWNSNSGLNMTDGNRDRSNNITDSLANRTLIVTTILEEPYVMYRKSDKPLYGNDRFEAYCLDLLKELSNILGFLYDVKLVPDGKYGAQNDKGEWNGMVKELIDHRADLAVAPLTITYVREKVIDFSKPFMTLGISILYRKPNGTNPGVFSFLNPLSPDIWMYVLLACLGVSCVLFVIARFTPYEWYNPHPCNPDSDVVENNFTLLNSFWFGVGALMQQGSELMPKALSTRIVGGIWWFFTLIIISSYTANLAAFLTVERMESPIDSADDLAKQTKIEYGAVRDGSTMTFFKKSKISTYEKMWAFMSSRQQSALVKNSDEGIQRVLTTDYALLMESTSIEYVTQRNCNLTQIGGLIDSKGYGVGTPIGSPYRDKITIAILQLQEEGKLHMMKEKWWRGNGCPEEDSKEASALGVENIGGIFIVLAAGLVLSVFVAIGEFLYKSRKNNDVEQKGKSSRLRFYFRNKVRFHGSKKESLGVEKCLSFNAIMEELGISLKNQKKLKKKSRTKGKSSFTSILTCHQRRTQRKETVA
Sequence of Glutamate receptor 3 (Rattus norvegicus) (P19492 whole entry): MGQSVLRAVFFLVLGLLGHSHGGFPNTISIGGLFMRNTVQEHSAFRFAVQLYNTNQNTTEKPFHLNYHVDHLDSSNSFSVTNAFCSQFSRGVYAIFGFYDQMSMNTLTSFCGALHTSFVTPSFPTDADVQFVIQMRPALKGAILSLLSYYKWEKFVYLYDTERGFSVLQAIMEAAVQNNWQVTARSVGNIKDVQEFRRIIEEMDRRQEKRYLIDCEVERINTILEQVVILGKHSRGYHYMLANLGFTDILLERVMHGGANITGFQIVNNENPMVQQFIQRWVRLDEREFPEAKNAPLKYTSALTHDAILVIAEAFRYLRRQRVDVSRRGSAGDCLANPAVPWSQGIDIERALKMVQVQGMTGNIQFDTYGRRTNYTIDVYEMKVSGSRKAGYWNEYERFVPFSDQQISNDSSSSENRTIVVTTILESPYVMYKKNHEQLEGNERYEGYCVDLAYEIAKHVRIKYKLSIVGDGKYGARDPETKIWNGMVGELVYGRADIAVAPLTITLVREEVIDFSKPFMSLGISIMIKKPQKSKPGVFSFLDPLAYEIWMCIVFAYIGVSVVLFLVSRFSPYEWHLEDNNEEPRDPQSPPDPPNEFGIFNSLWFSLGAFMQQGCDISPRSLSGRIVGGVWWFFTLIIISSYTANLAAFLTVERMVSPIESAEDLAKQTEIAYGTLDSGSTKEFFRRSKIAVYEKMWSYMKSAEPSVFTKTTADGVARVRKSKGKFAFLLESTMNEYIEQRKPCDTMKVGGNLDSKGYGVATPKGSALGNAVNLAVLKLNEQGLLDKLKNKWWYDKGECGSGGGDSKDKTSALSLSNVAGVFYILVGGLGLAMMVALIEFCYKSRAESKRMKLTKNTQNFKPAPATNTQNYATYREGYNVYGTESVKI
T4 sequence (P19492 whole entry, canonical isoform): as the sequence (P19492 whole entry) above

Consider `CC(C)(C)c1onc(O)c1C[C@H](N)C(=O)O`, for which the Activity in assay [1] turned out to be 100%; in assay [2] it was 101%; in assay [5], 102%. For the same compound, the concentration for half-maximal inhibition (IC50) (as a rule, the concentration at which inhibition is half-maximal) in assay [3] amounted to 1.8 µM; in assay [6], 23 µM. In addition, the EC50 on Glutamate receptor 4 [4] (hek293, read-out: EC50) stood at 150 µM.
For `C=C(C)[C@H]1CN[C@H](C(=O)O)[C@H]1CC(=O)O` [KAINIC ACID], the Activity in [1] came to 45%; in assay [2], 18%; in assay [5], 55%. Further, on Glutamate receptor 4 [4] (read-out: EC50), the EC50 was found to be 47 µM.
On to `Cc1onc(O)c1C[C@H](N)C(=O)O` [(S)-AMPA], for which the IC50 in assay [3] was 0.039 µM; in assay [6], over 100 µM.
`CC1CCC=C(C[C@H](N)C(=O)O)c2c(O)noc21` (mixture of isomers): the EC50 is 0.86 µM in assay [7]; 48 µM at Glutamate receptor 3 [10] (read-out: EC50); 63.1 µM on Glutamate receptor 3 [10] (read-out: pEC50 (converted)); 70 µM on Glutamate receptor 1 [12]; over 1000 µM in assay [13]; over 1000 µM in [15]. In addition, the EC50 on Glutamate receptor 4 [4] (read-out: EC50) is 35 µM; on Glutamate receptor 4 [4] (read-out: pEC50 (converted)) it was 158 µM; at Glutamate receptor 2 [17], 160 µM; in assay [19], 0.24 µM; on Glutamate receptor 1 [22], 70 µM. For the same compound, the Ki (usually a dissociation constant, usually derived from enzyme kinetics or from competition with a known ligand) on Glutamate receptor 4 [8] is 2.2 µM; on Glutamate receptor 1 [9], 1.55 µM; on Glutamate receptor 2 [11], 6.31 µM; on Glutamate NMDA receptor [14] it was over 100 µM; at Glutamate receptor 3 [16], 1.11 µM; in assay [18], 0.00508 µM. For the same compound, the Ki in assay [20] is over 100 µM; in [21], 1.38 µM. The Activity in assay [1] worked out at 46%; in assay [2] it was 29%; in [5], 68%. In addition, the IC50 in assay [3] is 9.7 µM; in assay [6], 8.3 µM.
`N[C@@H](CC1=CCCCc2onc(O)c21)C(=O)O`: the Ki on Glutamate receptor 4 [8] is 0.202 µM; on Glutamate receptor 1 [9], 0.232 µM; at Glutamate receptor 2 [11], 0.175 µM; on Glutamate NMDA receptor [14] it was over 100 µM; at Glutamate receptor 3 [16] it was 0.173 µM. In addition, the Activity in [1] stood at 54%; in [2], 28%; in [5], 79%. Moreover, the EC50 was 13 µM at Glutamate receptor 3 [10] (read-out: EC50); 32 µM at Glutamate receptor 1 [12]; 6.7 µM on Glutamate receptor 4 [4] (read-out: EC50); 92 µM at Glutamate receptor 2 [17]; 4.5 µM at Glutamate receptor 1 [22]. Further, the IC50 in [3] turned out to be 0.28 µM; in assay [6], 1.6 µM.
For `CC(C)(C)c1o[nH]c(=O)c1C[C@H](N)C(=O)O`, the Ki at Glutamate receptor 4 [8] was 2.14 µM; at Glutamate receptor 1 [9], 2.78 µM; on Glutamate receptor 2 [11], 1.66 µM; on Glutamate NMDA receptor [23] it was over 100 µM; at Glutamate receptor 3 [16], 2.04 µM. Moreover, the EC50 is 630 µM at Glutamate receptor 3 [10] (read-out: EC50), 730 µM at Glutamate receptor 1 [12], over 1000 µM on Glutamate receptor 2 [17] and 62 µM on Glutamate receptor 1 [22].
